The source of these data is US5698669A, “Tri-arginine insulins” (Eli Lilly and Company, priority 1995, dated 1997).

Series [1] concerns New Zealand White rabbits. As to the kind of experiment: Blood glucose in fasted rabbits after subcutaneous injection of 40 U/ml insulin solutions. The conditions noted are these: for Percent of Original Blood Glucose: added zinc 0 mg/ml, 0.2 U/kg s.c., rabbits, n = 10; for hypoglycemic activity: statement in words, animal model. Format: in vivo, rabbit.
Experimental: Solutions were prepared containing various amounts of zinc (0-2.4 mg/ml) in the form of zinc chloride. Glacial acetic acid was used to solublize each of the solutions at a final pH range of pH 4-6.
New Zealand White rabbits, mostly female, all weighing 2.7-4 kg, 0.5-4 years of age and fasted 16 hours prior to administration of sample were used for testing.
At various times, 100 μl volumes of blood were obtained from the marginal ear veins, mixed with 900 μl volumes of anticoagulant (EDTA-sodium fluoride) and analyzed for glucose content. The glucose values were standardized to reflect percent of original blood glucose measured prior to sample injection.
Another series concerns the target human proinsulin (human) (UniProt P01308).
For series [2] the following is noted: standardized value used for formulating 40 U/ml solutions; cited from earlier work.
Series [3] concerns the target des(64) human proinsulin (human) (UniProt P01308).

Regarding “Des(64) HPI: split(64) proinsulin wherein Lys-64 is removed”, the “Percent of Original Blood Glucose” value in series [1] (4 hours after injection) came to 99.6%; in series [1] (6 hours after injection), 90.0%. Also, the hypoglycemic activity entry in series [1] is reported as “hypoglycemic activity of its own”.

Turning to “Pseudomonas aeruginosa Endopeptidase-Lys-C (Promega) (enzyme)”, the conversion of human proinsulin to split(64) proinsulin (preparative HPLC, yield of product) in the series with human proinsulin (human) was determined as 237 mg.

On to “Split(64) HPI: human proinsulin wherein the peptide bond between Lys-64 and Arg-65 is broken”, for which, in series [1], the hypoglycemic activity entry is reported as “hypoglycemic activity of its own”.

Consider “human insulin: natural human insulin, reference for biopotency”, for which, in series [2], the “standardized value (potency per mass)” value was 28.85 U/mg.

In series [3], “pork trypsin (Sigma) (from UniProt P00761) (enzyme)” gave a conversion of des(64) human proinsulin to tri-arg insulin (preparative HPLC, yield of product) of 0.94 g.
